Structures can show the parent of a compound that is named as a salt.

The term EC50 denotes the concentration at which the effect is half-maximal.

Assay [1] has as its system sonic hedgehog pathway. Briefly: Human hedgehog reporter assay Daoy-GliLuc (DGL). Type of assay: cell-based. To be noted: Daoy human medulloblastoma cells, Gli-luciferase reporter. In short, it runs like this:
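Luminescence read-out of gli-promoter luciferase in stably transfected cells; 11-point 1:3 dose curves, 24 h compound exposure in 0.5% FBS, ± octyl-modified Hh protein 1–5 ng/ml. AMAX as % of plate low/high controls; EC50 from curve; >20% AMAX counted active.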

The subject of assay [2] is sonic hedgehog pathway. Briefly: Hedgehog pathway Gli-luciferase reporter assay, S12 cells. To be noted: S12 mouse embryonic mesenchymal cells. Type of assay: cell-based. The text has this: Mouse (TM3: mouse Leydig cells; S12: mouse embryonic mesenchymal cells) and human (Daoy: human medulloblastoma cell; HepM: human embryonic palatal mesenchymal cell) cell lines are used to screen small molecules for their ability to modulate the activity of the sonic hedgehog pathway (Table 1, Table 2, and Table 3). Stable hedgehog pathway reporter cell lines are established by specific antibiotic selection following transfection of a reporter plasmid containing a luciferase gene located directly downstream from the gli promoter. Consequently, any observable changes in cellular luciferase activity may be attributed to changes in sonic hedgehog pathway activity in mouse and human cells, respectively, since gli is the major by-product of this pathway. To calculate activity, we generate an eleven point dose curve for each compound using 1:3 dilutions in 96 well assay plates. Each plate tested also contains low and high control to establish maximal pathway activation so to establish/compare a percentage activation of each tested compound (AMAX) on respective plates. Also we calculate EC50 values, or a concentration where the pathway will be exactly 50% activated, for each tested compound to determine potency. In these cell lines, compounds that register >20% AMAX values are considered active.
Stable hedgehog pathway reporter cell lines are established following specific antibiotic selection following transfection of a reporter plasmid In short, typically cells are plated in MicroTiter-plates at 10,000-20,000 cells per well, in growth media (containing 10%-20% FBS). After 48-72 hrs (HGL and DGL respectively) the media in the assay plates is switched to low-serum containing media (0.5% FBS). At that time compounds are added (at 1-5 μM) to the assay plates, in the presence or absence of hedgehog protein (octyl-modified version; 1-5 ng/ml). After another 24 hrs of incubation, the media from the assay plates is discarded and replaced with luciferase assay-mix. Subsequently, plates are incubated at RT for ˜15-30 mins and then read in a luminometer. [note: addition of the Hedgehog protein, although not critical, will sensitize the assay allowing the identification of weak actives].
In general terms: Reporter assays use an easily measured gene product as a stand-in for the process of interest.

Where [3] appears, read: read-out: Human Daoy (Gli-Luc) Avg. EC50.

In the case of `CN[C@H]1CC[C@@H](N(Cc2cc(-c3cccnc3F)ccc2OC)C(=O)c2sc3cccc(F)c3c2Cl)CC1` [Compound 381], the EC50 in the assay with sonic hedgehog pathway [1] (setting [3]) and in the assay with sonic hedgehog pathway [2] (read-out: Mouse S12 Avg. EC50) was less than 50 nM each time.
On to `CN[C@H]1CC[C@H](N(Cc2cc(-c3ccccc3S(C)(=O)=O)ccc2OC)C(=O)c2sc3c(F)ccc(F)c3c2Cl)CC1` [Compound 411, 3-Chloro-4,7-difluoro-benzo[b]thiophene-2-carboxylic acid (2′-methanesulfonyl-4-methoxy-biphenyl-3-ylmethyl)-(4-methylamino-cyclohexyl)-amide hydrochloride], for which the EC50 with sonic hedgehog pathway [1] (read-out: Daoy Avg. EC50) was 1000 to 2500 nM; with sonic hedgehog pathway [2] (read-out: S12 Avg. EC50), 250 to 1000 nM.
Take `CN[C@H]1CC[C@@H](N(Cc2cc(-c3cccc([S+](C)[O-])c3)ccc2OC)C(=O)c2sc3c(F)ccc(F)c3c2Cl)CC1` (stereo partly drawn) [Compound 376, 3-Chloro-4,7-difluoro-benzo[b]thiophene-2-carboxylic acid (3′-methanesulfinyl-4-methoxy-biphenyl-3-ylmethyl)-(4-methylamino-cyclohexyl)-amide trifluoroacetate]: the EC50 in the assay with sonic hedgehog pathway [1] (setting [3]) and in the assay on sonic hedgehog pathway [2] (read-out: Mouse S12 Avg. EC50) was less than 50 nM throughout.
Take `CN[C@H]1CC[C@@H](N(Cc2cc(-c3ccc(CS(C)(=O)=O)cc3)ccc2OC)C(=O)c2sc3c(F)ccc(F)c3c2Cl)CC1` [Compound 369, 3-Chloro-4,7-difluoro-benzo[b]thiophene-2-carboxylic acid (4′-methanesulfonylmethyl-4-methoxy-biphenyl-3-ylmethyl)-(4-methylamino-cyclohexyl)-amide hydrochloride]: the EC50 with sonic hedgehog pathway [1] (setting [3]) and in the assay with sonic hedgehog pathway [2] (read-out: Mouse S12 Avg. EC50) was less than 50 nM throughout.
`CCOc1cc(-c2ccc(OC)c(CN(C(=O)c3sc4c(F)ccc(F)c4c3Cl)[C@H]3CC[C@H](NC)CC3)c2)ccn1` [Compound 414]: the EC50 with sonic hedgehog pathway [1] (read-out: Daoy Avg. EC50) is less than 50 nM; with sonic hedgehog pathway [2] (read-out: S12 Avg. EC50), 50 to 250 nM.
Regarding `CCc1ccc(-c2ccncc2)cc1CN(C(=O)c1sc2c(F)ccc(F)c2c1Cl)[C@H]1CC[C@@H](NC)CC1` [Compound 395, 3-Chloro-4,7-difluoro-benzo[b]thiophene-2-carboxylic acid (2-ethyl-5-pyridin-4-yl-benzyl)-(4-methylamino-cyclohexyl)-amide dihydrochloride], the EC50 in the assay on sonic hedgehog pathway [1] (setting [3]) and in the assay on sonic hedgehog pathway [2] (read-out: Mouse S12 Avg. EC50) was 50 to 250 nM throughout.
Turning to `CNC1CCC(N(Cc2cc(-c3ccncc3F)ccc2OC)C(=O)c2sc3cccc(F)c3c2Cl)CC1` (stereo not drawn) [Compound 387, 3-Chloro-4-fluoro-benzo[b]thiophene-2-carboxylic acid [5-(3-fluoro-pyridin-4-yl)-2-methoxy-benzyl]-(4-methylamino-cyclohexyl)-amide], the 50% effective concentration (EC50) with sonic hedgehog pathway [1] (setting [3]) and in the assay with sonic hedgehog pathway [2] (read-out: Mouse S12 Avg. EC50) was less than 50 nM each time.
Consider `CN[C@H]1CC[C@@H](N(Cc2cc(-c3ccc(N(C)S(C)(=O)=O)cc3)ccc2OC)C(=O)c2sc3c(F)ccc(F)c3c2Cl)CC1` [Compound 371, 3-Chloro-4,7-difluoro-benzo[b]thiophene-2-carboxylic acid [4′-(methanesulfonyl-methyl-amino)-4-methoxy-biphenyl-3-ylmethyl]-(4-methylamino-cyclohexyl)-amide hydrochloride], for which the EC50 in the assay with sonic hedgehog pathway [1] (setting [3]) and with sonic hedgehog pathway [2] (read-out: Mouse S12 Avg. EC50) was less than 50 nM throughout.
In the case of `CNC1CCC(N(Cc2cc(-c3ccc(SC)cc3)ccc2OC)C(=O)c2sc3c(F)ccc(F)c3c2Cl)CC1` (stereo not drawn) [Compound 373, 3-Chloro-4,7-difluoro-benzo[b]thiophene-2-carboxylic acid (4-methoxy-4′-methylsulfanyl-biphenyl-3-ylmethyl)-(4-methylamino-cyclohexyl)-amide hydrochloride], the EC50 in the assay with sonic hedgehog pathway [1] (setting [3]) and with sonic hedgehog pathway [2] (read-out: Mouse S12 Avg. EC50) was less than 50 nM each time.
For `CNC1CCC(N(Cc2cc(-c3ccnc(F)c3)ccc2OC)C(=O)c2sc3c(F)ccc(F)c3c2Cl)CC1` (stereo not drawn) [Compound 384, 3-Chloro-4,7-difluoro-benzo[b]thiophene-2-carboxylic acid [5-(2-fluoro-pyridin-4-yl)-2-methoxy-benzyl]-(4-methylamino-cyclohexyl)-amide], the EC50 in the assay with sonic hedgehog pathway [1] (setting [3]) and in the assay on sonic hedgehog pathway [2] (read-out: Mouse S12 Avg. EC50) was less than 50 nM throughout.
`COc1ccc(-c2cncc(F)c2)cc1CN(C(=O)c1sc2c(F)ccc(F)c2c1Cl)[C@H]1CC[C@@H](N)CC1` [Compound 416]: the values for the EC50 with sonic hedgehog pathway [1] (read-out: Daoy Avg. EC50) and with sonic hedgehog pathway [2] (read-out: S12 Avg. EC50) were 50 to 250 nM and less than 50 nM, respectively.
The matching figures for `CN[C@H]1CC[C@H](N(Cc2cc(-c3cccc(S(C)(=O)=O)c3)ccc2OC)C(=O)c2sc3c(F)ccc(F)c3c2Cl)CC1` [Compound 412, 3-Chloro-4,7-difluoro-benzo[b]thiophene-2-carboxylic acid (3′-methanesulfonyl-4-methoxy-biphenyl-3-ylmethyl)-(4-methylamino-cyclohexyl)-amide hydrochloride]: less than 50 nM and less than 50 nM.
Taken in the same sequence, the figures for `COc1ccc(-c2ccncc2F)cc1CN(C(=O)c1sc2c(F)ccc(F)c2c1Cl)[C@H]1CC[C@@H](N)CC1` [Compound 417] were less than 50 nM and less than 50 nM.
Consider `C=Cc1ccc(-c2ccc(OC)c(CN(C(=O)c3sc4c(F)ccc(F)c4c3Cl)[C@H]3CC[C@@H](N)CC3)c2)cc1` [Compound 393, N-((1r,4r)-4-aminocyclohexyl)-3-chloro-4,7-difluoro-N-((4-methoxy-4′-vinylbiphenyl-3-yl)methyl)benzo[b]thiophene-2-carboxamide], for which the EC50 in the assay with sonic hedgehog pathway [1] (setting [3]) and with sonic hedgehog pathway [2] (read-out: Mouse S12 Avg. EC50) was 50 to 250 nM in each case.
In the case of `CN[C@H]1CC[C@@H](N(Cc2cc(-c3ccc(S(=O)(=O)N(C)C)cc3)ccc2OC)C(=O)c2sc3c(F)ccc(F)c3c2Cl)CC1` [Compound 391, 3-Chloro-4,7-difluoro-benzo[b]thiophene-2-carboxylic acid (4′-dimethylsulfamoyl-4-methoxy-biphenyl-3-ylmethyl)-(4-methylamino-cyclohexyl)-amide trifluoroacetate], the EC50 in the assay on sonic hedgehog pathway [1] (setting [3]) and with sonic hedgehog pathway [2] (read-out: Mouse S12 Avg. EC50) was less than 50 nM throughout.
Take `CNC1CCC(N(Cc2cc(-c3ccc(F)nc3)ccc2OC)C(=O)c2sc3c(F)ccc(F)c3c2Cl)CC1` (stereo not drawn) [Compound 379, 3-Chloro-4,7-difluoro-benzo[b]thiophene-2-carboxylic acid [5-(6-fluoro-pyridin-3-yl)-2-methoxy-benzyl]-(4-methylamino-cyclohexyl)-amide]: the EC50 in the assay on sonic hedgehog pathway [1] (setting [3]) and in the assay with sonic hedgehog pathway [2] (read-out: Mouse S12 Avg. EC50) was less than 50 nM throughout.
Turning to `CN[C@H]1CC[C@@H](N(Cc2cc(-c3ccc([S+](C)[O-])cc3)ccc2OC)C(=O)c2sc3c(F)ccc(F)c3c2Cl)CC1` (stereo partly drawn) [Compound 377, 3-Chloro-4,7-difluoro-benzo[b]thiophene-2-carboxylic acid (4′-methanesulfinyl-4-methoxy-biphenyl-3-ylmethyl)-(4-methylamino-cyclohexyl)-amide trifluoroacetate], the EC50 in the assay on sonic hedgehog pathway [1] (setting [3]) and in the assay on sonic hedgehog pathway [2] (read-out: Mouse S12 Avg. EC50) was less than 50 nM throughout.
As to `CN[C@H]1CC[C@@H](N(Cc2cc(-c3ccncc3)ccc2C)C(=O)c2sc3c(F)ccc(F)c3c2Cl)CC1` [Compound 392, 3-Chloro-4,7-difluoro-benzo[b]thiophene-2-carboxylic acid (4-methylamino-cyclohexyl)-(2-methyl-5-pyridin-4-yl-benzyl)-amide bis(trifluoroacetate)], the EC50 in the assay with sonic hedgehog pathway [1] (setting [3]) and in the assay with sonic hedgehog pathway [2] (read-out: Mouse S12 Avg. EC50) was less than 50 nM in each case.

The values are drawn from US20080182859A1 (Curis, Inc., priority 2006, published 2008).
